Tests used:
[1] = biological target: 3-hydroxy-3-methylglutaryl-coenzyme A reductase (Homo sapiens) (UniProt P04035); test: Inhibition of HMG-CoA Reductase at compound concentration of 10.0 uM in the Eurofins-Panlabs enzyme assay (Eurofins_assay_124010); design: substrate with concentration; settings: Compound concentration 10.0 uM
[2] = biological target: Tyrosine-protein kinase ABL1 (Homo sapiens) (UniProt P00519); test: Abl(h) Millipore kinase panel; settings: Compound concentration 1.0 uM
[3] = biological target: 5'-AMP-activated protein kinase catalytic subunit alpha-1 (Homo sapiens) (UniProt Q13131); test: AMPKalpha1(h) Millipore kinase panel; settings: Compound concentration 1.0 uM
[4] = biological target: Calcium/calmodulin-dependent protein kinase type 1 (Homo sapiens) (UniProt Q14012); test: CaMKI(h) Millipore kinase panel; settings: Compound concentration 1.0 uM
[5] = biological target: Calcium/calmodulin-dependent protein kinase type IV (Homo sapiens) (UniProt Q16566); test: CaMKIV(h) Millipore kinase panel; settings: Compound concentration 1.0 uM
[6] = biological target: Calcium/calmodulin-dependent protein kinase kinase 2 (Homo sapiens) (UniProt Q96RR4); test: CaMKK2(h) Millipore kinase panel; settings: Compound concentration 1.0 uM
[7] = biological target: Cyclin-dependent kinase-like 4 (Homo sapiens) (UniProt Q5MAI5); test: CDKL4(h) Millipore kinase panel; settings: Compound concentration 1.0 uM
[8] = biological target: Serine/threonine-protein kinase 35 (Homo sapiens) (UniProt Q8TDR2); test: CLIK1(h) Millipore kinase panel; settings: Compound concentration 1.0 uM
[9] = biological target: Dual specificity protein kinase CLK3 (Homo sapiens) (UniProt P49761); test: CLK3(h) Millipore kinase panel; settings: Compound concentration 1.0 uM
[10] = biological target: Ephrin type-A receptor 1 (Homo sapiens) (UniProt P21709); test: EphA1(h) Millipore kinase panel; settings: Compound concentration 1.0 uM
[11] = biological target: Ephrin type-A receptor 7 (Homo sapiens) (UniProt Q15375); test: EphA7(h) Millipore kinase panel; settings: Compound concentration 1.0 uM
[12] = biological target: Ephrin type-B receptor 2 (Homo sapiens) (UniProt P29323); test: EphB2(h) Millipore kinase panel; settings: Compound concentration 1.0 uM
[13] = biological target: Ephrin type-B receptor 3 (Homo sapiens) (UniProt P54753); test: EphB3(h) Millipore kinase panel; settings: Compound concentration 1.0 uM
[14] = biological target: Vascular endothelial growth factor receptor 3 (Homo sapiens) (UniProt P35916); test: Flt4(h) Millipore kinase panel; settings: Compound concentration 1.0 uM
[15] = biological target: Tyrosine-protein kinase HCK (Homo sapiens) (UniProt P08631); test: Hck(h) activated Millipore kinase panel; settings: Compound concentration 1.0 uM
[16] = biological target: Inhibitor of nuclear factor kappa-B kinase subunit beta (Homo sapiens) (UniProt O14920); test: IKKbeta(h) Millipore kinase panel; settings: Compound concentration 1.0 uM
[17] = biological target: Tyrosine-protein kinase Lyn (Homo sapiens) (UniProt P07948); test: Lyn(h) Millipore kinase panel; settings: Compound concentration 1.0 uM
[18] = biological target: Ribosomal protein S6 kinase alpha-4 (Homo sapiens) (UniProt O75676); test: MSK2(h) Millipore kinase panel; settings: Compound concentration 1.0 uM
[19] = biological target: Myosin-IIIb (Homo sapiens) (UniProt Q8WXR4); test: MYO3B(h) Millipore kinase panel; settings: Compound concentration 1.0 uM
[20] = biological target: Serine/threonine-protein kinase 38 (Homo sapiens) (UniProt Q15208); test: NDR1(h) Millipore kinase panel; settings: Compound concentration 1.0 uM
[21] = biological target: cAMP-dependent protein kinase catalytic subunit beta (Homo sapiens) (UniProt P22694); test: PKACbeta(h) Millipore kinase panel; settings: Compound concentration 1.0 uM
[22] = biological target: Serine/threonine-protein kinase PLK3 (Homo sapiens) (UniProt Q9H4B4); test: Plk3(h) Millipore kinase panel; settings: Compound concentration 1.0 uM
[23] = biological target: Serine/threonine-protein kinase 32B (Homo sapiens) (UniProt Q9NY57); test: STK32B(h) Millipore kinase panel; settings: Compound concentration 1.0 uM
[24] = biological target: Angiopoietin-1 receptor (Homo sapiens) (UniProt Q02763); test: Tie2(h) Millipore kinase panel; settings: Compound concentration 1.0 uM
[25] = biological target: Tribbles homolog 2 (Homo sapiens) (UniProt Q92519); test: TRB2(h) Millipore kinase panel; settings: Compound concentration 1.0 uM
[26] = biological target: Testis-specific serine/threonine-protein kinase 4 (Homo sapiens) (UniProt Q6SA08); test: TSSK4(h) Millipore kinase panel; settings: Compound concentration 1.0 uM
[27] = biological target: Non-receptor tyrosine-protein kinase TYK2 (Homo sapiens) (UniProt P29597); test: TYK2(h) Millipore kinase panel; settings: Compound concentration 1.0 uM
[28] = biological target: Serine/threonine-protein kinase ULK1 (Homo sapiens) (UniProt O75385); test: ULK1(h) Millipore kinase panel; settings: Compound concentration 1.0 uM
[29] = biological target: Wee1-like protein kinase 2 (Homo sapiens) (UniProt P0C1S8); test: Wee1B(h) Millipore kinase panel; settings: Compound concentration 1.0 uM
[30] = biological target: Prostaglandin G/H synthase 2 (Homo sapiens) (UniProt P35354); test: Cyclooxygenase COX-2 Eurofins-Panlabs enzyme assay; design: substrate with concentration; settings: Compound concentration 10.0 uM
[31] = biological target: 3',5'-cyclic-AMP phosphodiesterase 4D (Homo sapiens) (UniProt Q08499); test: Inhibition of Phosphodiesterase PDE4D2 at 10 µM in the Eurofins-Panlabs enzyme assay (Eurofins_assay_154420); design: substrate with concentration; settings: Compound concentration 10.0 uM
[32] = biological target: D(3) dopamine receptor (Homo sapiens) (UniProt P35462); settings: Compound concentration 10.0 uM
[33] = biological target: Sodium-dependent noradrenaline transporter (Homo sapiens) (UniProt P23975); settings: Compound concentration 10.0 uM
[34] = biological target: Histamine H4 receptor (Homo sapiens) (UniProt Q9H3N8); settings: Compound concentration 10.0 uM
[35] = biological target: Beta-3 adrenergic receptor (Homo sapiens) (UniProt P13945); settings: Compound concentration 10.0 uM
[36] = biological target: Adenosine receptor A3 (Homo sapiens) (UniProt P0DMS8); settings: Compound concentration 10.0 uM
[37] = biological target: T1, 5-hydroxytryptamine receptor 1A (Homo sapiens) (UniProt P08908); settings: Compound concentration 10.0 uM
T1 sequence (whole entry): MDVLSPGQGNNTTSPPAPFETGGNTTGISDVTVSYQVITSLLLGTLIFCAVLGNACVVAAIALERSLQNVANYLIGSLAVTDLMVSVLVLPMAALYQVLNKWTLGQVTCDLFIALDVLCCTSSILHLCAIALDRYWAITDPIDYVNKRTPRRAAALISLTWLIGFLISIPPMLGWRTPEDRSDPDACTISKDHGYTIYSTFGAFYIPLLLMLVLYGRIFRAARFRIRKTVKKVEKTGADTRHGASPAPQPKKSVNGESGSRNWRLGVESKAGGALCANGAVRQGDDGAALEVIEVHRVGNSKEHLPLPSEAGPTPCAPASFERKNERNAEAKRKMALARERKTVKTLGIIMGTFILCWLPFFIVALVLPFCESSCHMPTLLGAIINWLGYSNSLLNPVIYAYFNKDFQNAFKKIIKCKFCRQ

Rattus norvegicus = species on record: Rattus norvegicus; settings: Compound concentration 10.0 uM
[38] = biological target: Sodium-dependent noradrenaline transporter (Homo sapiens) (UniProt P23975); settings: Compound concentration 10.0 uM; remark: listed apart in the source
[39] = biological target: 5-hydroxytryptamine receptor 2C (Homo sapiens) (UniProt P28335); settings: Compound concentration 10.0 uM
[40] = biological target: Glutamate receptor ionotropic, kainate (Rattus norvegicus) (UniProt P22756+Q01812+P42260+P42264+Q63273); settings: Compound concentration 10.0 uM
[41] = biological target: Phosphatidylinositol 5-phosphate 4-kinase type-2 alpha (Homo sapiens) (UniProt P48426); settings: Compound concentration 1.0 uM

Measured: inhibition

Chain of Sodium-dependent noradrenaline transporter (Homo sapiens) (P23975 whole entry): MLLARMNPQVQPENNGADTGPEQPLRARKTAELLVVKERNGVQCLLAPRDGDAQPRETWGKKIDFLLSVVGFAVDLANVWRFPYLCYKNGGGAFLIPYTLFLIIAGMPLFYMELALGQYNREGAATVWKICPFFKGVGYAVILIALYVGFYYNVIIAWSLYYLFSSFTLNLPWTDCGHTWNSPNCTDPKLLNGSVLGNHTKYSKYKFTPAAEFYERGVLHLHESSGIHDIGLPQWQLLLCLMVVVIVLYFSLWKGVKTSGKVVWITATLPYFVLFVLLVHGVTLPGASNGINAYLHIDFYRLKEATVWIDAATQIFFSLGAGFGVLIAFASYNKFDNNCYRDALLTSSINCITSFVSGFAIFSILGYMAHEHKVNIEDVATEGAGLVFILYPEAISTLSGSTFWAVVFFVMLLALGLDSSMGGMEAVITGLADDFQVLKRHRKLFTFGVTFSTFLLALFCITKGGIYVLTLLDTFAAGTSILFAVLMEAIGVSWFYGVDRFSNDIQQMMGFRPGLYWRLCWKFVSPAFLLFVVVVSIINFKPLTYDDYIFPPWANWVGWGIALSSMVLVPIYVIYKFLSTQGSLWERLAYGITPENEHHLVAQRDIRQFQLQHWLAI
Chain of 5'-AMP-activated protein kinase catalytic subunit alpha-1 (Homo sapiens) (Q13131 whole entry, looked up): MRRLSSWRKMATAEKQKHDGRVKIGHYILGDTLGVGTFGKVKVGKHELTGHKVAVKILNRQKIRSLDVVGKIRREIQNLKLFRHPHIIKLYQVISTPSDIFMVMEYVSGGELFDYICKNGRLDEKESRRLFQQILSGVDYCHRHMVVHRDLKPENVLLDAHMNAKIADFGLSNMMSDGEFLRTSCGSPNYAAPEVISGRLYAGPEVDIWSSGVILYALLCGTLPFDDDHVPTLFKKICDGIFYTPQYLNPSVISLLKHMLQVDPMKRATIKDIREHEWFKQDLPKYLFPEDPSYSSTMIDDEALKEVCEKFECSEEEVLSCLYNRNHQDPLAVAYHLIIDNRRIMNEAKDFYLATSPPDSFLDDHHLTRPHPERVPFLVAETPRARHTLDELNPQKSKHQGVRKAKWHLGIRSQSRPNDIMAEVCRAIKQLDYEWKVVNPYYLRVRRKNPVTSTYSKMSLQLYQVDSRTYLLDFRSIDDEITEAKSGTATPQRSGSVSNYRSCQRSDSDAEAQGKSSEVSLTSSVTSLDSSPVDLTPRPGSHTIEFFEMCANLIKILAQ
Chain of Myosin-IIIb (Homo sapiens) (Q8WXR4 whole entry): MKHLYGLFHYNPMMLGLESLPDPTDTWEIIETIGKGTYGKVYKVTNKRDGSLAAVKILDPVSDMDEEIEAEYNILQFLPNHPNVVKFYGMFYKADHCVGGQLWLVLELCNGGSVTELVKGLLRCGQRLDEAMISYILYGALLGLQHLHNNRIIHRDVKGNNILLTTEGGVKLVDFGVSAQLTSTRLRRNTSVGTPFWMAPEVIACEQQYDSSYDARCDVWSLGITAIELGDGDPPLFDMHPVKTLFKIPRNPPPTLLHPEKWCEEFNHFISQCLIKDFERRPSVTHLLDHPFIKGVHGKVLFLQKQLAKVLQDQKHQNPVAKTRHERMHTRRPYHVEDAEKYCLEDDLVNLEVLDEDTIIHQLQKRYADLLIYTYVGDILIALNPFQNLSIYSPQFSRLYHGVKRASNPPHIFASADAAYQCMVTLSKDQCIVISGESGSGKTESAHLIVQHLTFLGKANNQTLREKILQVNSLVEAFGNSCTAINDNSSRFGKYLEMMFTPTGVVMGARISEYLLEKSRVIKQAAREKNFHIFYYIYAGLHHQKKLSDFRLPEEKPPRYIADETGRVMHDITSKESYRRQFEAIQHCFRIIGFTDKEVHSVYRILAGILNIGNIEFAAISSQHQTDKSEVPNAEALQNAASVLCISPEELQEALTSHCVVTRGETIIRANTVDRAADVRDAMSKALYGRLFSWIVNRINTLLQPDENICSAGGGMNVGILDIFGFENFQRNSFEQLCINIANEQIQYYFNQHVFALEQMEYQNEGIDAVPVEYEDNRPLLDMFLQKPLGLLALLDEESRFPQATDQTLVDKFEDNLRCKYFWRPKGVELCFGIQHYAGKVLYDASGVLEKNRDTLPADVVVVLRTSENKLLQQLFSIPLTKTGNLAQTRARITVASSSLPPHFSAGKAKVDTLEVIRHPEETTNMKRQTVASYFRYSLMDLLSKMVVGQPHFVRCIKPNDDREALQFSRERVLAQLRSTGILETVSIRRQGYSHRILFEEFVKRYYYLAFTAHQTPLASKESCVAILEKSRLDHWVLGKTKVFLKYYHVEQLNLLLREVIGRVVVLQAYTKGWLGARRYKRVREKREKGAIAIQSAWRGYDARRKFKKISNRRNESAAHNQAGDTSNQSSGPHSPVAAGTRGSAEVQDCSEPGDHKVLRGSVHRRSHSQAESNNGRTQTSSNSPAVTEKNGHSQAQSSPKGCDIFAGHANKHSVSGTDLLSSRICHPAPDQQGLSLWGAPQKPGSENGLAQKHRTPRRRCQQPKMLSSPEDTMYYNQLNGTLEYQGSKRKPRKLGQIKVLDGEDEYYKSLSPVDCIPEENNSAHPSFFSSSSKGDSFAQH
Chain of Angiopoietin-1 receptor (Homo sapiens) (Q02763 whole entry): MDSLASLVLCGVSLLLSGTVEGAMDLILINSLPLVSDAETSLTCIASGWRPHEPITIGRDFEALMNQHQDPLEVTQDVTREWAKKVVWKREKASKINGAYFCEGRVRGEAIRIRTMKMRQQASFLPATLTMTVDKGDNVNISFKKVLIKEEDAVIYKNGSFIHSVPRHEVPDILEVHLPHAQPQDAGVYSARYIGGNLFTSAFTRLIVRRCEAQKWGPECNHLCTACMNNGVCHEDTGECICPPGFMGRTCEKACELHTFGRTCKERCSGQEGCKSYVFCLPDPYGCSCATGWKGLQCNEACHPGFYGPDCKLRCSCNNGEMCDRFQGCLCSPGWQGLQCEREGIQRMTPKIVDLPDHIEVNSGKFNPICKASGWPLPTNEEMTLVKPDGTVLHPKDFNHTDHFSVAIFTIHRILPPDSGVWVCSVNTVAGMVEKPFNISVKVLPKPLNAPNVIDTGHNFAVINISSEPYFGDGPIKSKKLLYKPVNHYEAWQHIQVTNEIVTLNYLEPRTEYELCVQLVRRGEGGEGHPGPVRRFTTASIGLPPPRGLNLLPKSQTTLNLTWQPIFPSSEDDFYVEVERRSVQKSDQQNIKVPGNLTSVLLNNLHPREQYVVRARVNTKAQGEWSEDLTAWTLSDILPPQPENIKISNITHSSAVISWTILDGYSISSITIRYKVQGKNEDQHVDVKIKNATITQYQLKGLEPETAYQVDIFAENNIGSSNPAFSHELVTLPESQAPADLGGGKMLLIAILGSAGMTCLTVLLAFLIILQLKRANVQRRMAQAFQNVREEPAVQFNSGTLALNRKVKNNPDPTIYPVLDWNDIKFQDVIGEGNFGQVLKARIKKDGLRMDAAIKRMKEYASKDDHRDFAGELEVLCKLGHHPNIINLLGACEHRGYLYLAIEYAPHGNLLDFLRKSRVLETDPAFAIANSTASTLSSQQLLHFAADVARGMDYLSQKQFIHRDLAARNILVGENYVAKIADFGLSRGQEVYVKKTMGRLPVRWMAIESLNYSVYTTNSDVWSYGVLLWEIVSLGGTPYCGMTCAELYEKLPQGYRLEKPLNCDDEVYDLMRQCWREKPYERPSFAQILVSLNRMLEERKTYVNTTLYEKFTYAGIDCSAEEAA
Chain of Wee1-like protein kinase 2 (Homo sapiens) (P0C1S8 whole entry, looked up): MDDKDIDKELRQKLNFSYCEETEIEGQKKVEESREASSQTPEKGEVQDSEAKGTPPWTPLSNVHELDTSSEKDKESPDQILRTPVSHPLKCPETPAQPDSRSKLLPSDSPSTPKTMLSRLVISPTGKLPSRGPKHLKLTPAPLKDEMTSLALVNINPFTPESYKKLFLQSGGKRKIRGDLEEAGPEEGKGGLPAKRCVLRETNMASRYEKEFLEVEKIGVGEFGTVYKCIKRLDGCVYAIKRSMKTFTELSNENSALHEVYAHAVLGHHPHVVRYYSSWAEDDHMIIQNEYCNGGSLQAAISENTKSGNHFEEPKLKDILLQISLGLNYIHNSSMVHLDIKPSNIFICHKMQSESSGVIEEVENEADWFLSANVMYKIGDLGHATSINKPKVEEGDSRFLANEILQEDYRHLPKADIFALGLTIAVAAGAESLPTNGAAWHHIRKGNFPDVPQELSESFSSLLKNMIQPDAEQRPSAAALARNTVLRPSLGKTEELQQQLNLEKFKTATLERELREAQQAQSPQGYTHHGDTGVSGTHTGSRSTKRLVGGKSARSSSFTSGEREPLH
Chain of Beta-3 adrenergic receptor (Homo sapiens) (P13945 whole entry, looked up): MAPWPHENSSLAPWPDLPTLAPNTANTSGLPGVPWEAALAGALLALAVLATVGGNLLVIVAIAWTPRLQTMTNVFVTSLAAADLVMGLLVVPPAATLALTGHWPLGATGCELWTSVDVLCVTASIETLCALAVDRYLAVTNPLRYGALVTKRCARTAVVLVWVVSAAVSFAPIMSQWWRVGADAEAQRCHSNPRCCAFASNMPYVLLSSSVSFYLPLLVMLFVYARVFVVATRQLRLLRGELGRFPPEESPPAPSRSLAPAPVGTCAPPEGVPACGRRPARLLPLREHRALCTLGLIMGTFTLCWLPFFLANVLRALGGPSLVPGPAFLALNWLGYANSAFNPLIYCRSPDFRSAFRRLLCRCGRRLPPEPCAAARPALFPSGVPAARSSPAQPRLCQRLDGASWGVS
Chain of Phosphatidylinositol 5-phosphate 4-kinase type-2 alpha (Homo sapiens) (P48426 whole entry): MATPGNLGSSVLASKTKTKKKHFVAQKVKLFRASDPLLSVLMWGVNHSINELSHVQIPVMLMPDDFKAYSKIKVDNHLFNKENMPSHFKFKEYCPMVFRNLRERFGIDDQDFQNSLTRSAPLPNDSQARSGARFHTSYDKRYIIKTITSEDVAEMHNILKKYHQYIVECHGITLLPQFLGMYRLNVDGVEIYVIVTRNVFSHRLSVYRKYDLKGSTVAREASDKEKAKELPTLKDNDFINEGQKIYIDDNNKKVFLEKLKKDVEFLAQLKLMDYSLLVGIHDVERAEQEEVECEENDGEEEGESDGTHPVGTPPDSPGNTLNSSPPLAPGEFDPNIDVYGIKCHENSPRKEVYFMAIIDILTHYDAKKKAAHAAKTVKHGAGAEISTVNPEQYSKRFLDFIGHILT

CC[C@@H](Nc1c(C#N)c(-c2ccc(-c3cccc(C)c3F)cc2)nc2cnccc12)C(=O)O [BAY-091]
inactive: [1] -7% | [2] 12.1% | [3] -1.91% | [4] 7.33% | [5] 7.26% | [6] 11.3% | [7] 12.6% | [8] 9.55% | [9] 2.84% | [10] 9.2% | [11] 2.1% | [12] 1.4% | [13] -5.61% | [14] 12.9% | [15] -6.21% | [16] 2.85% | [17] 12.5% | [18] -3.96% | [19] 18.1% | [20] -6% | [21] 6.73% | [22] -7.76% | [23] 14.9% | [24] 12.8% | [25] 0.49% | [26] 24% | [27] 1.22% | [28] 14.2% | [29] 9.64% | [30] 29% | [31] 38% | [32] 10.5% | [33] -2.64% | [34] 15.8% | [35] -2.13% | [36] 21% | [37] 27% | Rattus norvegicus 1% | [38] 25% | [39] 29% | [40] -2% | [41] 142%
